The source made the active and inactive calls. The calls are words filed in the database; no cut-off is given here.
What was measured:
HCT-116 [1] = assay: Induction of apoptosis in human HCT-116 cells at 1 uM incubated for 72 hrs by APC-Annexin-V/7-AAD staining based flow cytometry relative to control; format: functional
[2] = Volume of distribution in Sprague-Dawley rat at 3 mg/kg, iv measured for 24 hrs by LC-MS/MS analysis; format: ADME, organism-based; settings: in vivo
[3] = Cytotoxicity against wild type mouse normal ductal organoid [N(10128)] at 1 uM incubated for 72 hrs by CellTiter-Glo luminescence based analysis; format: toxicity, tissue-based
[4] = Toxicity in NSG mouse xenografted with human MIA PaCa-2 cells assessed as weight loss at 3 mg/kg, ip administered 3 times a week for 26 days and measured daily; format: organism-based; settings: in vivo, time 26 day
[5] = Hepatotoxicity in female NSG mouse xenografted with human RPMI-8226 cells assessed as foci of bile ductular/oval cell proliferation at 3 mg/kg, ip administered 3 times a week for 26 days and measured 48 hrs post last dose by H and E staining based assay; format: toxicity, organism-based, Bile duct; settings: in vivo, 672 h, time 28 day
[6] = Metabolic stability in Beagle dog liver microsomes assessed as compound remaining incubated for 45 mins in absence of NADPH by LC-MS/MS analysis; format: ADME, Canis lupus familiaris, Microsome; settings: 0.75 h
HCT-116 [7] = assay: Induction of apoptosis in human HCT-116 cells assessed as necrotic cells at 1 uM incubated for 72 hrs by APC-Annexin-V/7-AAD staining based flow cytometry (reference value: 2.99%); format: functional
HCT-116 [8] = assay: Induction of apoptosis in human HCT-116 cells assessed as early apoptotic cells at 1 uM incubated for 72 hrs in presence of geranylgeraniol by APC-Annexin-V/7-AAD staining based flow cytometry (reference value: 1.16%); format: functional
[9] = target: T1, Geranylgeranyl pyrophosphate synthase (Homo sapiens, UniProt O95749); assay: Inhibition of N-terminal His6 tagged human GGPPS expressed in Escherichia coli BL21(DE3) cells in presence of FPP and [14C]IPP by scintillation counting analysis
T1 sequence (O95749 whole entry): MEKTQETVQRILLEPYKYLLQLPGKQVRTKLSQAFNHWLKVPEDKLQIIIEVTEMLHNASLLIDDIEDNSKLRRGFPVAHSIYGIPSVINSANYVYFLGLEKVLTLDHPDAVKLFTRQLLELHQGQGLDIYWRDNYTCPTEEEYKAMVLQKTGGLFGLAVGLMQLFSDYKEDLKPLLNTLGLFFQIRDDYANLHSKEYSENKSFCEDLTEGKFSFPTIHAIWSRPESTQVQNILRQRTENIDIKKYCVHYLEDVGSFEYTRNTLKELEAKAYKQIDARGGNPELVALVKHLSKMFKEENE

[10] = MRT in Sprague-Dawley rat at 3 mg/kg, iv measured for 24 hrs by LC-MS/MS analysis; format: ADME, organism-based; settings: in vivo
[11] = Toxicity in NSG mouse xenografted with human MIA PaCa-2 cells assessed as inflammation at site of injection at 3 mg/kg, ip administered 3 times a week for 26 days and measured daily; format: organism-based; settings: in vivo, time 26 day
[12] = Cytotoxicity against human IMR-90 cells assessed as inhibition of cell growth at 360 nM incubated for 72 hrs by MTS assay relative to control; format: toxicity, cell-based
HCT-116 [13] = assay: cells; settings: Homo sapiens, HCT-116, 72 h
[14] = Metabolic stability in CD-1 mouse liver microsomes assessed as compound remaining incubated for 45 mins in presence of NADPH by LC-MS/MS analysis; format: ADME, Microsome; settings: 0.75 h
[15] = target: T2, Ras-related protein Rap-1A (Homo sapiens) (UniProt P62834); assay: Inhibition of RAP-1A prenylation in human HCT-116 cells incubated for 48 hrs by Western blot analysis; format: cell-based; settings: dose 10-1000 nM
T2 sequence (whole entry): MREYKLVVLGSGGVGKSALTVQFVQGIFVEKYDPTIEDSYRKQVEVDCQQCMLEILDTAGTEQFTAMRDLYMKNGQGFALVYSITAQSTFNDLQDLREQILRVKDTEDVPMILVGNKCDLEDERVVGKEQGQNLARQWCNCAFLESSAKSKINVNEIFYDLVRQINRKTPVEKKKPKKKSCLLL

[16] = Selectivity index, ratio of EC50 for human MIA PaCa-2 cells to EC50 for human RPMI-8226 cells; format: functional
RPMI-8226 = assay: Induction of ER stress in human RPMI-8226 cells at 1 uM; format: functional, cell-based
[17] = Hepatotoxicity in male NSG mouse xenografted with human RPMI-8226 cells assessed as foci of bile ductular/oval cell proliferation at 3 mg/kg, ip administered 3 times a week for 26 days and measured 48 hrs post last dose by H and E staining based assay; format: toxicity, organism-based, Bile duct; settings: in vivo, 672 h, time 28 day

Vd [2]: 0.055 L/kg
Stability [6]: 81.7%
IC50 [9]: 12 nM
MRT [10]: 4.68 h
EC50 (HCT-116 [13]): 580 nM
Stability [14]: 103%
inhibition [15]: Dose-Dependent Effect
Structure (SMILES): Cn1ncc2c(NC(P(=O)(O)O)P(=O)(O)O)nc(-c3cccc(C(=O)Nc4ccc(C(F)(F)F)cc4)c3)nc21
Activity (HCT-116 [1]): ~50%
Activity [3]: Non-Toxic
Activity [4]: Non-Toxic
Activity [5]: Non-Toxic
Activity (HCT-116 [7]): 4.6%
Activity (HCT-116 [8]): 1.54%
Activity [11]: Non-Toxic
inhibition at 72 h, 0.36 µM [12]: 0%
Ratio EC50 [16]: ~10
Activity (RPMI-8226): Active
Activity [17]: Non-Toxic

From ChEMBL document CHEMBL5375954, “Discovery and Evaluation of C6-Substituted Pyrazolopyrimidine-Based Bisphosphonate Inhibitors of the Human Geranylgeranyl Pyrophosphate Synthase and Evaluation of Their Antitumor Efficacy in Multiple Myeloma, Pancreatic Ductal Adenocarcinoma, and Colorectal Cancer” (J Med Chem, 2023)
